Key:
UM-UC-3 = assay: Cytotoxic activity in vitro, SRB; assay type: cell-based, human
Description: (§1) Cytotoxic activity tests in-vitro. A measure of the cytotoxic activity of bis-acridines are the EC50 (concentration of studied compounds at which 50% inhibition of proliferation of tumorous is observed) of the evaluated compounds that inhibit the growth of 50% of cells in relation to a control. The cytotoxic activity of the compounds was determined using SRB, recommended by the US National Cancer Institute (USA). As the spectrum of 13 human origin neoplasms in bis-acridine screening studies, we used the following: HT 29 [CRC], HCT 116 [CRC], H 460 [lung cancer], MDA MB 231 [breast cancer], MCF-7 [breast cancer], UM UC3 [bladder cancer], PC 3 [prostate cancer], DU 145 [ prostate cancer], Panc-1 [pancreatic cancer], Mia Pa Ca 2 [pancreatic cancer], BXPC 3 [pancreatic cancer], AsPC1 [pancreatic cancer], Capan-2 [pancreatic cancer]. […] The DU-145 results were substantially a basis for selecting compounds and neoplasms for screening. The next neoplasms most sensitive to the cytotoxic activity of bis-acridines was the CRC HCT-116, as well as breast cancer MBA-MB-231. […] The cytotoxic activity of the remaining bis-acridines is significant or high (EC50 in the range from 1 to 0.04 μM). […] Panc-1, MiaPaCa-2 and Capan-2 are more sensitive, whereas for AsPC-1 and BxPC-3 this activity is at least an order of magnitude smaller.

HT-29 = assay: Cytotoxic activity in vitro, SRB; assay type: cell-based, human
Description: as §1

Capan-2 = assay: Cytotoxic activity in vitro, SRB; assay type: cell-based, human
Description: as §1

PANC-1 = assay: Cytotoxic activity in vitro, SRB; assay type: cell-based, human
Description: as §1

MCF-7 = assay: Cytotoxic activity in vitro, SRB; assay type: cell-based, human
Description: as §1

HCT-116 = assay: Cytotoxic activity in vitro, SRB; assay type: cell-based, human
Description: as §1

BxPC-3 = assay: Cytotoxic activity in vitro, SRB; assay type: cell-based, human
Description: as §1

MiaPaCa-2 = assay: Cytotoxic activity in vitro, SRB; assay type: cell-based, human
Description: as §1

H-460 = assay: Cytotoxic activity in vitro, SRB; assay type: cell-based, human
Description: as §1

PC-3 = assay: Cytotoxic activity in vitro, SRB; assay type: cell-based, human
Description: as §1

MDA-MB-231 = assay: Cytotoxic activity in vitro, SRB; assay type: cell-based, human
Description: as §1

DU-145 = assay: Cytotoxic activity in vitro, SRB; assay type: cell-based, human
Description: as §1

AsPC-1 = assay: Cytotoxic activity in vitro, SRB; assay type: cell-based, human
Description: as §1

PANC 1 = assay: Anti-neoplasmic activity against xenograft in hairless mice; assay type: in vivo
Description: (§2) For this, we selected 26 bis-acridines, mainly on the basis of the cytotoxic activity. We performed 34 series of experiments evaluating the anti-neoplasmic activity on xenografts in hairless mice against eleven neoplasms of human origin from the determination of the cytotoxic activity of bis-acridines (table 4). The tumours were injected subcutaneously to hairless mice of 5-weeks, female Crl:Nu-Foxnlnu, at a rate of 5×10^6 cells per mouse. After attaining a tumour of about 100 mm^3 or 200 mm^3 in depending on the neoplasm and its take this was 8 or even 30 days, and began therapy. On the day therapy was initiated, we randomised the animals and divided them into groups. Test groups were from 6 to 8 animals, and controls had from 8 to 14 animals. Each compound was tested at three differentiated doses.
(§3) The preparations were administered intravenously (i.v.) twice weekly for 4 weeks (thrice weekly for rapidly growing neoplasms). In several series, we used intraperitoneally (i.p.) administration in the same scheme. […] The therapeutic efficacy of the tested formulations was evaluated by measuring tumour size (length and width measurements of the tumour on the basis of the calculated tumour volume). Tumours were measured twice weekly for a period of about 30 days for fast-growing neoplasms, as well as about 60 days for the slow-growing neoplasms. The tumour volume in the treated groups compared with the control group. On this basis, inhibition of tumour growth was calculated using the following formula: Tumour growth inhibition TGI [%]=100−(ΔVT/ΔVC×100) Where ΔVT—is mean the tumour volume in animals in the group treated at the given day of treatment, minus the mean tumour volume in animals at the date of commencement of therapy. ΔVC is mean tumour volume in animals in the control group on a given day of treatment minus the average tumour volume of animals on the date of commencement of therapy. The results of the tests of anti-neoplasmic activity conducted in xenografts of human-origin neoplasms in mice are shown in Table 5.
(§4) The result above was accepted only in the case that the dose administered in all animals or more than half of the animals that survived to the end of the experiment. In addition, the evaluation was the day that the administration of the preparation was already completed: for the fast-growing neoplasms (eg. HCT116) this was in the days from 15 to 26, while for slow-growing neoplasms (eg. Panc 1) on a day from 34 to 60. […] In addition, the maximum inhibition of neoplasms could be identified in the day, in which there were no factors that could change the value TGI value.
(§5) Such factors may include: a significant decrease in body weight, the appearance of observable toxaemia, excessive rate of tumour growth: tumours in excess of 2000 mm^3 and all animals alive on that day.

HCT 116 = assay: as above; assay type: in vivo
Description: as §2, §3, §4, §5

MDA MB 231 = assay: as above; assay type: in vivo
Description: as §2, §3, §4, §5

BXPC 3 = assay: as above; assay type: in vivo
Description: as §2, §3, §4, §5

Mia Pa Ca 2 = assay: as above; assay type: in vivo; conditions: series 28, i.v., single 5 mg/kg, total 28 mg/kg, day 33
Description: as §2, §3, §4, §5

AsPC 1 = assay: as above; assay type: in vivo; conditions: series 23, i.v., single 6 mg/kg, total 48 mg/kg, day 36, *at least half of animals did not survive
Description: as §2, §3, §4, §5

SMILES	EC50 (UM-UC-3) [nM]	EC50 (HT-29) [nM]	EC50 (Capan-2) [nM]	EC50 (PANC-1) [nM]	EC50 (MCF-7) [nM]	EC50 (HCT-116) [nM]	EC50 (BxPC-3) [nM]	EC50 (MiaPaCa-2) [nM]	EC50 (H-460) [nM]	EC50 (PC-3) [nM]	EC50 (MDA-MB-231) [nM]	EC50 (DU-145) [nM]	EC50 (AsPC-1) [nM]	other results
Cc1ccc([N+](=O)[O-])c2c(NCCCN3CCN(CCCNc4ccc5ncn6c7ccc(O)cc7c(=O)c4c56)CC3)c3ccccc3nc12 [C-2025, 1-[3-(8-hydroxy-imidazo[4,5,1-de]-acridin-6-on-5-yl)aminopropyl]-4-[3′-(4′-methyl-1′-nitroacridin-1-yl)-aminopropyl]piperazine]	35	237	68	42	244	51	354	38	74	130	17	67	343	TGI [%] [100 − (ΔVT/ΔVC × 100] (PANC 1; series 20, i.v., single 20 mg/kg, total 160 mg/kg, day 26, *at least half of animals did not survive): 61* %; TGI [%] [100 − (ΔVT/ΔVC × 100] (HCT 116; series 7, i.v., single 20 mg/kg, total 120 mg/kg, day 15): 4%; TGI [%] [100 − (ΔVT/ΔVC × 100] (MDA MB 231; series 19, i.v., single 5 mg/kg, total 40 mg/kg, day 39): 12%
Cc1ccc([N+](=O)[O-])c2c(NCCCN(C)CCCNc3ccc([N+](=O)[O-])c4[nH]c5ccccc5c(=O)c34)c3ccccc3nc12 [C-2029, 9-{N-[(4-nitro-9(10H)acridono-1-yl)aminopropyl]-N-methylaminopropylamino}-4′-methyl-1′-nitroacridine]	54	230	–	110	–	74	–	–	55	–	–	44	–	TGI [%] [100 − (ΔVT/ΔVC × 100] (HCT 116; series 8, i.p., single 20 mg/kg, total 100 mg/kg, day 23): 52%
O=c1c2ccccc2[nH]c2c([N+](=O)[O-])ccc(NCCNCCNCCNc3c4ccccc4nc4cccc([N+](=O)[O-])c34)c12 [C-2033, 9-[N-(4-nitro-9(10H)acridono-1-yl)-aminoethylaminoethylamino-ethylamino]-1′-nitroacridine]	15	–	–	38	72	19	–	48	–	32	32	10	–	TGI [%] [100 − (ΔVT/ΔVC × 100] (HCT 116; series 8, i.p., single 3 mg/kg, total 21 mg/kg, day 23): 37%
Cc1ccc([N+](=O)[O-])c2c(NCCCN(C)CCCNc3ccc4ncn5c6ccc(O)cc6c(=O)c3c45)c3ccccc3nc12 [C-2045, 9-{N-[(8-hydroxyimidazo[4,5,1-de]-acridin-6-on-5-yl)aminopropyl]-N-methylaminopropylamino}-4′-methyl-1′-nitroacridine]	–	–	52	216	–	40	169	59	–	–	52	59	152	TGI [%] [100 − (ΔVT/ΔVC × 100] (PANC 1; series 20, i.v., single 10 mg/kg, total 40 mg/kg, day 32): 67%; TGI [%] [100 − (ΔVT/ΔVC × 100] (PANC 1; series 24, i.v., single 2 mg/kg, total 16 mg/kg, day 44): 82%; TGI [%] [100 − (ΔVT/ΔVC × 100] (PANC 1; series 26, i.v., single 10 mg/kg, total 80 mg/kg, day 56): 64%; TGI [%] [100 − (ΔVT/ΔVC × 100] (PANC 1; series 29, i.v., single 5 mg/kg, total 25 mg/kg, day 36): 25%; TGI [%] [100 − (ΔVT/ΔVC × 100] (BXPC 3; series 25, i.p., single 10 mg/kg, total 80 mg/kg, day 32): 77%; TGI [%] [100 − (ΔVT/ΔVC × 100] (Mia Pa Ca 2): 55%
COc1ccc2c(c1)c(=O)c1c(NCCCN3CCN(CCCNc4c5ccccc5nc5cccc([N+](=O)[O-])c45)CC3)ccc3ncn2c31 [C-2049, 1-[3-(8-methoxy-imidazo[4,5,1-de]-acridin-6-on-5-yl)aminopropyl]-4-[3′-(1′-nitroacridin-1-yl)-aminopropyl]piperazine]	–	–	27	40	–	28	75	36	–	–	38	21	122	TGI [%] [100 − (ΔVT/ΔVC × 100] (PANC 1; series 20, i.v., single 6 mg/kg, total 48 mg/kg, day 32): 63%; TGI [%] [100 − (ΔVT/ΔVC × 100] (PANC 1; series 27, i.v, single 2 mg/kg, total 16 mg/kg, day 47): 80%; TGI [%] [100 − (ΔVT/ΔVC × 100] (BXPC 3; series 21, i.v., single 6 mg/kg, total 40 mg/kg, day 34): 63%; TGI [%] [100 − (ΔVT/ΔVC × 100] (AsPC 1): 32* %
Cc1ccc([N+](=O)[O-])c2c(NCCCN(C)CCCNc3ccc4ncn5c6ccccc6c(=O)c3c45)c3ccccc3nc12 [C-2053, 9-{N-[(imidazo[4,5,1-de]-acridin-6-on-5-yl)aminopropyl]-N-methylaminopropylamino}-4′-methyl-1′-nitroacridine]	–	–	–	98	–	65	224	87	–	–	–	65	176	TGI [%] [100 − (ΔVT/ΔVC × 100] (PANC 1; series 24, i.v., single 15 mg/kg, total 120 mg/kg, day 37): 64%; TGI [%] [100 − (ΔVT/ΔVC × 100] (PANC 1; series 26, i.v., single 20 mg/kg, total 160 mg/kg, day 56): 69%; TGI [%] [100 − (ΔVT/ΔVC × 100] (BXPC 3; series 25, i.v., single 20 mg/kg, total 160 mg/kg, day 36): 84%; TGI [%] [100 − (ΔVT/ΔVC × 100] (BXPC 3; series 33, i.v., single 20 mg/kg, total 160 mg/kg, day 32, *at least half of animals did not survive): 47* %; TGI [%] [100 − (ΔVT/ΔVC × 100] (MDA MB 231; series 34, i.v., single 15 mg/kg, total 120 mg/kg, day 32): 62%

Source: patent US10202349B2, “Asymmetric bis-acridines with antitumour activity and their uses” (POLITECHNIKA GDAŃSKA, priority 2015, dated 2019)
